Data on 7 cell lines can be found in the supplement of paper PMC10307832.

Holding throughout (assay): relative viability (nuclei count vs DMSO), 5 days (fraction); higher = more cells survive
Compound in the test “MLN4924 + Foretinib”: NS(=O)(=O)OC[C@@H]1C[C@@H](n2ccc3c(N[C@H]4CCc5ccccc54)ncnc32)C[C@@H]1O [MLN4924] + COc1cc2c(Oc3ccc(NC(=O)C4(C(=O)Nc5ccc(F)cc5)CC4)cc3F)ccnc2cc1OCCCN1CCOCC1 [Foretinib] (partner 0.25 µM)
In a few lines:
(§1)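 A single step with final 0.05% Triton X-100, 1% formaldehyde and 1 ug/ml Hoechst fixed the cells and stained nuclei 5 days after treatment. Lung cancer cell lines in 1536-well plates had been treated by pin tool the day after seeding with one drug alone or a fixed anchor-drug dose plus five library-drug doses (not always all listed) in √10 steps, and nuclei were counted on 4× images. Relative viability is the ratio of nuclei in treated wells to nuclei in vehicle wells, taken as the median of duplicate plates.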

Compound in the test “GSK126 + OSI-027”: CC[C@H](C)N1C=C(C2=C(C=C(C=C21)C3=CN=C(C=C3)N4CCNCC4)C(=O)NCC5=C(C=C(NC5=O)C)C)C [GSK126] + COc1cccc2cc(-c3nc([C@H]4CC[C@H](C(=O)O)CC4)n4ncnc(N)c34)[nH]c12 [OSI-027] (partner 0.5 µM)
In a few lines: as §1

Compound in the test “MLN4924 + Pictilisib”: NS(=O)(=O)OC[C@@H]1C[C@@H](n2ccc3c(N[C@H]4CCc5ccccc54)ncnc32)C[C@@H]1O [MLN4924] + CS(=O)(=O)N1CCN(Cc2cc3nc(-c4cccc5[nH]ncc45)nc(N4CCOCC4)c3s2)CC1 [Pictilisib] (partner 1 µM)
The method in brief: as §1

Compound in the test “MLN4924 + Palbociclib”: NS(=O)(=O)OC[C@@H]1C[C@@H](n2ccc3c(N[C@H]4CCc5ccccc54)ncnc32)C[C@@H]1O [MLN4924] + CC(=O)c1c(C)c2cnc(Nc3ccc(N4CCNCC4)cn3)nc2n(C2CCCC2)c1=O [Palbociclib] (partner 0.5 µM)
The method in brief: as §1

Turning to 201T, the relative viability with MLN4924 + Foretinib (first compound 0.04 µM) stood at 1.23; with MLN4924 + Foretinib (first compound 0.1265 µM), 0.842; with MLN4924 + Foretinib (first compound 0.4 µM), 0.561; in the test with MLN4924 + Foretinib (first compound 1.265 µM), 0.194; in the test with MLN4924 + Foretinib (first compound 4 µM) it was 0.175; with GSK126 + OSI-027 (first compound 0.08 µM), 0.822. In addition, the relative viability is 0.772 with GSK126 + OSI-027 (first compound 0.253 µM); 0.736 with GSK126 + OSI-027 (first compound 0.8 µM); 0.865 in the test with GSK126 + OSI-027 (first compound 2.53 µM); 0.759 with GSK126 + OSI-027 (first compound 8 µM); 0.783 with MLN4924 + Pictilisib (first compound 0.04 µM); 0.837 in the test with MLN4924 + Pictilisib (first compound 0.1265 µM). In addition, the relative viability was determined as 0.833 with MLN4924 + Pictilisib (first compound 0.4 µM); 0.425 with MLN4924 + Pictilisib (first compound 1.265 µM); 0.366 with MLN4924 + Pictilisib (first compound 4 µM); 0.395 in the test with MLN4924 + Palbociclib (first compound 0.04 µM); 0.353 with MLN4924 + Palbociclib (first compound 0.1265 µM); 0.354 with MLN4924 + Palbociclib (first compound 0.4 µM). In addition, the relative viability with MLN4924 + Palbociclib (first compound 1.265 µM) was found to be 0.219; with MLN4924 + Palbociclib (first compound 4 µM), 0.26.

Regarding A549, the relative viability in the test with MLN4924 + Foretinib (first compound 0.04 µM) stood at 0.972; with MLN4924 + Foretinib (first compound 0.1265 µM), 0.8; with MLN4924 + Foretinib (first compound 0.4 µM), 0.508; with MLN4924 + Foretinib (first compound 1.265 µM), 0.0828; with MLN4924 + Foretinib (first compound 4 µM), 0.0301; with MLN4924 + Pictilisib (first compound 0.04 µM), 0.5. Further, the relative viability is 0.474 with MLN4924 + Pictilisib (first compound 0.1265 µM), 0.246 in the test with MLN4924 + Pictilisib (first compound 0.4 µM), 0.0557 with MLN4924 + Pictilisib (first compound 1.265 µM) and 0.0729 with MLN4924 + Pictilisib (first compound 4 µM).

A-427: the relative viability came to 0.742 with MLN4924 + Foretinib (first compound 0.04 µM); 0.236 with MLN4924 + Foretinib (first compound 0.1265 µM); 0.264 with MLN4924 + Foretinib (first compound 0.4 µM); 0.185 in the test with MLN4924 + Foretinib (first compound 1.265 µM); 0.178 with MLN4924 + Foretinib (first compound 4 µM); 0.491 with GSK126 + OSI-027 (first compound 0.08 µM). Besides, the relative viability in the test with GSK126 + OSI-027 (first compound 0.253 µM) was determined as 0.515; in the test with GSK126 + OSI-027 (first compound 0.8 µM), 0.43; in the test with GSK126 + OSI-027 (first compound 2.53 µM) it was 0.409; with GSK126 + OSI-027 (first compound 8 µM) it was 0.456; with MLN4924 + Pictilisib (first compound 0.04 µM) it was 0.66; in the test with MLN4924 + Pictilisib (first compound 0.1265 µM), 0.406. The relative viability was determined as 0.284 with MLN4924 + Pictilisib (first compound 0.4 µM); 0.179 with MLN4924 + Pictilisib (first compound 1.265 µM); 0.222 with MLN4924 + Pictilisib (first compound 4 µM); 0.381 with MLN4924 + Palbociclib (first compound 0.04 µM); 0.339 with MLN4924 + Palbociclib (first compound 0.1265 µM); 0.321 with MLN4924 + Palbociclib (first compound 0.4 µM). Moreover, the relative viability with MLN4924 + Palbociclib (first compound 1.265 µM) is 0.29; with MLN4924 + Palbociclib (first compound 4 µM), 0.282.

For the cell line ABC-1, the relative viability was 1.07 with MLN4924 + Foretinib (first compound 0.04 µM); 1.07 with MLN4924 + Foretinib (first compound 0.1265 µM); 0.301 in the test with MLN4924 + Foretinib (first compound 0.4 µM); 0.189 with MLN4924 + Foretinib (first compound 1.265 µM); 0.248 in the test with MLN4924 + Foretinib (first compound 4 µM); 0.462 with GSK126 + OSI-027 (first compound 0.08 µM). Further, the relative viability with GSK126 + OSI-027 (first compound 0.253 µM) stood at 0.525; with GSK126 + OSI-027 (first compound 0.8 µM), 0.532; with GSK126 + OSI-027 (first compound 2.53 µM), 0.492; with GSK126 + OSI-027 (first compound 8 µM), 0.539; in the test with MLN4924 + Pictilisib (first compound 0.04 µM), 0.677; with MLN4924 + Pictilisib (first compound 0.1265 µM) it was 0.809. Besides, the relative viability was 0.372 with MLN4924 + Pictilisib (first compound 0.4 µM); 0.188 with MLN4924 + Pictilisib (first compound 1.265 µM); 0.374 in the test with MLN4924 + Pictilisib (first compound 4 µM); 1 with MLN4924 + Palbociclib (first compound 0.04 µM); 1.02 in the test with MLN4924 + Palbociclib (first compound 0.1265 µM); 0.695 in the test with MLN4924 + Palbociclib (first compound 0.4 µM). Also, the relative viability was 0.316 in the test with MLN4924 + Palbociclib (first compound 1.265 µM) and 0.498 with MLN4924 + Palbociclib (first compound 4 µM).

As for BEN, the relative viability is 0.491 in the test with MLN4924 + Foretinib (first compound 0.04 µM); 0.307 with MLN4924 + Foretinib (first compound 0.1265 µM); 0.219 with MLN4924 + Foretinib (first compound 0.4 µM); 0.169 with MLN4924 + Foretinib (first compound 1.265 µM); 0.129 in the test with MLN4924 + Foretinib (first compound 4 µM); 0.324 in the test with GSK126 + OSI-027 (first compound 0.08 µM). Besides, the relative viability in the test with GSK126 + OSI-027 (first compound 0.253 µM) came to 0.349; with GSK126 + OSI-027 (first compound 0.8 µM), 0.281; with GSK126 + OSI-027 (first compound 2.53 µM) it was 0.288; in the test with GSK126 + OSI-027 (first compound 8 µM) it was 0.287; in the test with MLN4924 + Pictilisib (first compound 0.04 µM) it was 0.566; in the test with MLN4924 + Pictilisib (first compound 0.1265 µM) it was 0.398. Besides, the relative viability with MLN4924 + Pictilisib (first compound 0.4 µM) is 0.254; with MLN4924 + Pictilisib (first compound 1.265 µM), 0.163; in the test with MLN4924 + Pictilisib (first compound 4 µM), 0.155; in the test with MLN4924 + Palbociclib (first compound 0.04 µM), 0.402; with MLN4924 + Palbociclib (first compound 0.1265 µM), 0.411; with MLN4924 + Palbociclib (first compound 0.4 µM), 0.374. For the same cell line, the relative viability was determined as 0.285 in the test with MLN4924 + Palbociclib (first compound 1.265 µM) and 0.222 with MLN4924 + Palbociclib (first compound 4 µM).

Take CAL-12T: the relative viability with MLN4924 + Foretinib (first compound 0.04 µM) was 1.01; in the test with MLN4924 + Foretinib (first compound 0.1265 µM), 1.03; in the test with MLN4924 + Foretinib (first compound 0.4 µM), 0.463; in the test with MLN4924 + Foretinib (first compound 1.265 µM) it was 0.422; in the test with MLN4924 + Foretinib (first compound 4 µM), 0.181; with GSK126 + OSI-027 (first compound 0.08 µM), 0.78. For the same cell line, the relative viability with GSK126 + OSI-027 (first compound 0.253 µM) is 0.576; with GSK126 + OSI-027 (first compound 0.8 µM), 0.767; in the test with GSK126 + OSI-027 (first compound 2.53 µM), 0.67; in the test with GSK126 + OSI-027 (first compound 8 µM), 0.819; with MLN4924 + Pictilisib (first compound 0.1265 µM), 0.41; in the test with MLN4924 + Pictilisib (first compound 0.4 µM) it was 0.299. In addition, the relative viability was found to be 0.237 with MLN4924 + Pictilisib (first compound 1.265 µM); 0.156 with MLN4924 + Pictilisib (first compound 4 µM); 0.403 with MLN4924 + Palbociclib (first compound 0.04 µM); 0.254 with MLN4924 + Palbociclib (first compound 0.1265 µM); 0.161 with MLN4924 + Palbociclib (first compound 0.4 µM); 0.122 with MLN4924 + Palbociclib (first compound 1.265 µM). The relative viability in the test with MLN4924 + Palbociclib (first compound 4 µM) came to 0.182.

As for COR-L23, the relative viability came to 0.985 in the test with MLN4924 + Foretinib (first compound 0.04 µM); 0.844 in the test with MLN4924 + Foretinib (first compound 0.1265 µM); 0.644 in the test with MLN4924 + Foretinib (first compound 0.4 µM); 0.299 with MLN4924 + Foretinib (first compound 1.265 µM); 0.141 in the test with MLN4924 + Foretinib (first compound 4 µM); 1 in the test with GSK126 + OSI-027 (first compound 0.08 µM). The relative viability in the test with GSK126 + OSI-027 (first compound 0.253 µM) came to 0.725; in the test with GSK126 + OSI-027 (first compound 0.8 µM), 0.645; with GSK126 + OSI-027 (first compound 2.53 µM), 0.824; with GSK126 + OSI-027 (first compound 8 µM), 0.694; with MLN4924 + Pictilisib (first compound 0.04 µM), 0.711; with MLN4924 + Pictilisib (first compound 0.1265 µM), 0.71. Further, the relative viability came out at 0.159 in the test with MLN4924 + Pictilisib (first compound 0.4 µM); 0.104 with MLN4924 + Pictilisib (first compound 1.265 µM); 0.0964 with MLN4924 + Pictilisib (first compound 4 µM); 0.267 with MLN4924 + Palbociclib (first compound 0.04 µM); 0.3 in the test with MLN4924 + Palbociclib (first compound 0.1265 µM); 0.215 in the test with MLN4924 + Palbociclib (first compound 0.4 µM). In addition, the values for the relative viability in the test with MLN4924 + Palbociclib (first compound 1.265 µM) and with MLN4924 + Palbociclib (first compound 4 µM) were 0.0984 and 0.105, respectively.
